The assay concerns the target T1, Aβ₄₀ (L1 lipidic Aβ₄₀ fibril, amyloid beta 1-40) (Homo sapiens, UniProt P05067).
T1 construct: gene APP; Aβ(1-40), type 1 lipidic (L1) fibril of two protofilaments
Briefly: ITC on preformed L1 fibrils; supported by DNP-enhanced NHHC ssNMR contacts, (H)CANH titration and cryo-EM density. Format: binding.

This note sets out measurements from publication PMC12494798, “Anle138b binds predominantly to the central cavity in lipidic Aβ₄₀ fibrils and modulates fibril formation” (Nature Communications, 2025).

A word on the Kd: it is the concentration at which binding is half-saturated.

The structures appear in SMILES notation.

T1 sequence (P05067 672-711): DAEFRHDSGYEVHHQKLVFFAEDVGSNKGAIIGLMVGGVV

Regarding `Brc1cccc(-c2cc(-c3ccc4c(c3)OCO4)n[nH]2)c1` [anle138b, 3-(1,3-benzodioxol-5-yl)−5-(3-bromophenyl)−1H-pyrazole], the Kd turned out to be 640 nM.
